Measurements published in US5371186A, “Synthetic peptides for detoxification of bacterial endotoxins and for the prevention and treatment of septic shock” (priority 1992, dated 1994).
Bridge positions count the residues as written; N and C are the ends. Ends that are not written are not given here. Peptide text beside a SMILES is read from it. * marks the point of attachment. Biotin = O=C1N[C@H]2[C@H](CS[C@H]2CCCCC(=O)*)N1

Tests used:
trypsin in human serum = assay: stability towards proteolysis by trypsin in human serum; assay type: in vitro ADME
Method: (§1) The effects of trypsin present in human serum on Polymyxin "B" and the peptides of invention was determined by combining 10 μl of human serum with 20 μg of the given peptide in 10 μl volume and holding the mixture at a temperature of 37° C. for different intervals of time. At various times, an aliquot of the mixture was processed by HPLC analysis in order to detect the residual amount of the investigated peptide. In Table VI the half-lives time of each peptide investigated are shown as compared to the half-life time of Polymyxin "B".

trypsin = assay: as above; assay type: in vitro ADME; conditions: human serum, 37° C., 180 mins; read-out: AMOUNT RECOVERED % after 180 mins
Method: as §1

Avidin = Avidin (Gallus gallus, UniProt P02701); conditions: cited from earlier work
Chain of Avidin (P02701 25-152, species assumed): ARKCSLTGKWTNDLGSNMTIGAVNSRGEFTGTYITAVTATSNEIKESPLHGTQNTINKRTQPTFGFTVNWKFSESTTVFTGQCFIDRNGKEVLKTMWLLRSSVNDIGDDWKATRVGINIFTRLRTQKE

[1] = prevention of endotoxin-induced death in CD1 mice sensitized with Actinomycin D; assay type: in vivo, mice (Strain CD1); conditions: 0.1 mg/mouse i.v., 1 μg endotoxin i.p.; for Mice surviving: 20 mice per group
Method: Prevention of endotoxin-induced death in mice, has been achieved by intravenous injection of the peptides of the invention. For this experiment, a strain of mice highly sensitive to the lethal activity of bacterial endotoxin has been used. Mice sensitized with Actinomycin D (Strain CD1) show a high sensitivity to extremely low doses of endotoxin. A dose as low as 1 μg of endotoxin per mouse (about 40 μg/kg of body weight) is able to completely kill a population of mice within 24-48 hours.
Groups of 20 mice CD1 have been treated intravenously with the peptides of the invention, with a single dose of 0.1 mg peptide, solubilized in sterile saline, per mouse. Thirty minutes later, mice were challenged by intraperitoneal injection of 1 μg of endotoxin purified from E. Coli strain 055-B5. Surviving mice were recorded every 24 hours during a seven days-period of observation. […] Negative controls received an intravenous injection of saline.
There were 20 mice per group. Mice surviving at each of the seven 24 hours observation periods are listed. The % survival appears in parenthesis. P expresses the level of statistical significance calculated by "t-Test" for each molecule compared to the treatment with saline, considering the total survival rate in each group.

Row | Molecule | Half-Life Time (t/2) (trypsin in human serum; human serum, 37° C.) | remaining at 3 h, 1 mg/mL (trypsin) [%] | also measured
1 | CC[C@H](C)[C@H](N)C(=O)N[C@@H](CCCCN)C(=O)N[C@H](C(=O)N[C@@H](CCCCN)C(=O)N[C@H]1CSSC[C@@H](C(=O)O)NC(=O)[C@H](CCCCN)NC(=O)[C@H](CCCCN)NC(=O)[C@H](CC(C)C)NC(=O)[C@H](Cc2ccccc2)NC(=O)[C@H](CCCCN)NC1=O)[C@@H](C)O [Peptide VI] (H-IKTKCKFLKKC-OH; disulfide 5-11) | 1,080 min | 76 | 
2 | O=C(O)CCCC[C@@H]1SC[C@@H]2NC(=O)N[C@@H]21 [Biotin] |  |  | K of the reaction with Avidin (Avidin): 10^15
3 | CC(C)C[C@@H]1NC(=O)[C@H](Cc2ccccc2)NC(=O)[C@H](CCCCN)NC(=O)[C@@H](NC(=O)[C@H](CCCCN)NC(=O)[C@@H](NC(=O)[C@@H](N)CCCCN)[C@@H](C)O)CSSC[C@@H](C(=O)O)NC(=O)[C@H](CCCCN)NC(=O)[C@H](CCCCN)NC1=O [Peptide II] (H-KTKCKFLKKC-OH; disulfide 4-10) | 50 min | 10 | 
4 | CN(C)CCCN1c2ccccc2Sc2ccc(Cl)cc21 [CPZ, Chlorpromazine] |  |  | % survival ([1]; 24 hs): 50%; Mice surviving ([1]; 24 hs): 10; % survival ([1]; 48 hs): 50%; Mice surviving ([1]; 48 hs): 10; % survival ([1]; 72 hs): 50%; Mice surviving ([1]; 72 hs): 10; % survival ([1]; 96 hs): 50%; Mice surviving ([1]; 96 hs): 10; % survival ([1]; 120 hs): 50%; Mice surviving ([1]; 120 hs): 10; % survival ([1]; 144 hs): 50%; Mice surviving ([1]; 144 hs): 10; % survival ([1]; 168 hs): 50%; Mice surviving ([1]; 168 hs): 10
5 | KFLKFLK [Peptide IX] | 10 min | 0 | 
6 | CC(C)C[C@@H]1NC(=O)[C@H](CCCCN)NC(=O)[C@H](CCCCN)NC(=O)[C@@H](N)CSSC[C@@H](C(=O)N[C@@H](CCCCN)C(=O)N[C@H](C(=O)O)[C@@H](C)O)NC(=O)[C@H](CCCCN)NC(=O)[C@H](Cc2ccccc2)NC1=O [Peptide V] (H-CKKLFKCKT-OH; disulfide 1-7) | 240 min | 55 | 
7 | RYVRYVRYV [Peptide X] | 35 min | 0 | 
8 | IKTKKFLKKT [Peptide VII] | 50 min | 28 | 
9 | CC[C@H](C)[C@H](NC(=O)CCCC[C@@H]1SC[C@@H]2NC(=O)N[C@@H]21)C(=O)N[C@@H](CCCCN)C(=O)N[C@H](C(=O)N[C@@H](CCCCN)C(=O)N[C@H]1CSSC[C@@H](C(=O)O)NC(=O)[C@H](CCCCN)NC(=O)[C@H](CCCCN)NC(=O)[C@H](CC(C)C)NC(=O)[C@H](Cc2ccccc2)NC(=O)[C@H](CCCCN)NC1=O)[C@@H](C)O [labeled Peptide VI] (Biotin-IKTKCKFLKKC-OH; disulfide 5-11) |  |  | Half-Life Time (t/2) (trypsin in human serum; human serum or human whole blood, not significantly different from the unlabeled value): ~1200 min
10 | IKFLKFLKFLK [Peptide VIII] | 7 min | 0 | 
11 | CC(C)C[C@@H]1NC(=O)[C@H](CCCCN)NC(=O)[C@H](CCCCN)NC(=O)[C@@H](N)CSSC[C@@H](C(=O)N[C@@H](CCCCN)C(=O)N[C@H](C(=O)N[C@@H](CCCCN)C(=O)O)[C@@H](C)O)NC(=O)[C@H](CCCCN)NC(=O)[C@H](Cc2ccccc2)NC1=O [Peptide IV] (H-CKKLFKCKTK-OH; disulfide 1-7) | 18 min | 0 | 
12 | CC(C)C[C@@H]1NC(=O)[C@H](Cc2ccccc2)NC(=O)[C@H](CCCCN)NC(=O)[C@@H](N)CSSC[C@@H](C(=O)O)NC(=O)[C@H](CCCCN)NC(=O)[C@H](CCCCN)NC1=O [Peptide I] (H-CKFLKKC-OH; disulfide 1-7) | > 180 min | 70 | 
